Data from patent publication US20210000852A1, “POLYDATIN PACLITAXEL COMPOSITION, AND APPLICATION IN PREPARING MEDICAMENT FOR PREVENTING AND TREATING GASTRIC CANCER” (Tianjin Medical University Cancer Institute and Hospital, priority 2018, published 2021).

How the values were obtained:
[1] = tested on: human gastric cancer cells SGC-7901; assay: CCK-8 growth and proliferation activity, SGC-7901 cells; format: cell-based; conditions: for inhibition of the activity of gastric cancer cells (single agent): SGC-7901, 24 h, concentration gradients; for IC50 / IC50 of SGC-7901 cells: SGC-7901, treated for 24 h
From the text: (§1) Human gastric cancer cell line SGC-7901 was purchased from Shanghai Genechem Co., Ltd. and human gastric cancer cell line AGS was purchased from Cell Bank of American Type Culture Collection (ATCC) (ATCC No. CRL-1739).
(§2) In FIG. 5, the mass ration of composition is as follows: (a) mPD: mPaclitaxel=22.65:1 (Example 3); (b) mPD: mPaclitaxel=45.29:1; (c) mPD: mPaclitaxel=90.59:1; (d) mPD: mPaclitaxel=226.48:1. In FIG. 6, the mass ration of composition is as follows: (a) mPD: mPaclitaxel=8.44:1; (b) mPD: mPaclitaxel=16.88:1; (c) mPD: mPaclitaxel=33.77:1 (Example 4).
(§3) In FIG. 7, the mass ration of composition is as follows: (a) mPD: mPactitaxel=45.29:1; (b) mPD: mPaclitaxel=90.59:1; (c) mPD: mPaclitaxel=226.48:1. In FIG. 8, the mass ration of composition is as follows: (a) mPD: mPaclitaxel=16.88:1; (b) mPD: mPaclitaxel=33.77:1.

[2] = tested on: human gastric cancer cells AGS; assay: CCK-8 growth and proliferation activity, AGS cells; format: cell-based; conditions: for inhibition of the activity of gastric cancer cells (single agent): 24 h, concentration gradients; for IC50 / IC50 of AGS cells: treated for 24 h
From the text: as §1, §2, §3

Polydatin
inhibition of the activity of gastric cancer cells (single agent) [1]: inhibit the activity of both gastric cancer cells in a concentration-dependent manner | IC50 [1]: 139 µM | IC50 of SGC-7901 cells [1]: 124.0 µg/mL | inhibition of the activity of gastric cancer cells (single agent) [2]: inhibit the activity of both gastric cancer cells in a concentration-dependent manner | IC50 [2]: 56.2 µM | IC50 of AGS cells [2]: 53.5 µg/mL

CC(=O)O[C@H]1C(=O)[C@@]2(C)[C@H]([C@H](OC(=O)c3ccccc3)[C@]3(O)C[C@H](OC(=O)[C@H](O)[C@@H](NC(=O)c4ccccc4)c4ccccc4)C(C)=C1C3(C)C)[C@]1(OC(C)=O)CO[C@@H]1C[C@@H]2O [Paclitaxel]
inhibition of the activity of gastric cancer cells (single agent) [1]: inhibit the activity of both gastric cancer cells in a concentration-dependent manner | IC50 [1]: 5.27 µM | IC50 of SGC-7901 cells [1]: 5.5 µg/mL | inhibition of the activity of gastric cancer cells (single agent) [2]: inhibit the activity of both gastric cancer cells in a concentration-dependent manner | IC50 [2]: 3.34 µM | IC50 of AGS cells [2]: 6.3 µg/mL
